Patent US20260285850A1, “SUBSTITUTED OXAZOLIDINONES AND IMIDAZOLINONES AS HERBICIDES” (FMC CORPORATION, priority 2023, published 2026)

Legend:
Format in all cases: in vivo
[1] = system: barnyardgrass (Echinochloa crus-galli); experiment: Test A preemergence soil spray, visual injury rating 0-100; settings: 10 days, 0 = no effect, 100 = complete control
In short: (§1)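 Rating: visual, day 10, untreated plants as reference, 0 no effect to 100 full control. Plants were in loam-sand and were treated either preemergence via directed soil spray or postemergence at the one- to two-leaf stage.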

[2] = system: blackgrass (Alopecurus myosuroides); experiment: as above; settings: 10 days, 0 = no effect, 100 = complete control
In short: as §1

[3] = system: corn (Zea mays); experiment: as above; settings: 10 days, 0 = no effect, 100 = complete control
In short: as §1

[4] = system: green foxtail (Setaria viridis); experiment: as above; settings: 10 days, 0 = no effect, 100 = complete control
In short: as §1

[5] = system: kochia (Bassia scoparia); experiment: as above; settings: 10 days, 0 = no effect, 100 = complete control
In short: as §1

[6] = system: oat, wild (wild oat, Avena fatua); experiment: as above; settings: 10 days, 0 = no effect, 100 = complete control
In short: as §1

[7] = system: palmer (palmer amaranth, palmer pigweed, Amaranthus palmeri); experiment: as above; settings: 10 days, 0 = no effect, 100 = complete control
In short: as §1

[8] = system: ragweed (common ragweed, Ambrosia artemisiifolia); experiment: as above; settings: 10 days, 0 = no effect, 100 = complete control
In short: as §1

[9] = system: ryegrass, Italian (italian ryegrass, Lolium multiflorum); experiment: as above; settings: 10 days, 0 = no effect, 100 = complete control
In short: as §1

[10] = system: soybean (Glycine max); experiment: as above; settings: 10 days, 0 = no effect, 100 = complete control
In short: as §1

[11] = system: wheat (Triticum aestivum); experiment: as above; settings: 10 days, 0 = no effect, 100 = complete control
In short: as §1

[12] = system: barnyardgrass (Echinochloa crus-galli); experiment: Test A postemergence application, visual injury rating 0-100; settings: 10 days
In short: as §1

[13] = system: blackgrass (Alopecurus myosuroides); experiment: as above; settings: 10 days
In short: as §1

[14] = system: corn (Zea mays); experiment: as above; settings: 10 days
In short: as §1

[15] = system: galium (catchweed bedstraw, Galium aparine); experiment: as above; settings: 10 days
In short: as §1

[16] = system: green foxtail (Setaria viridis); experiment: as above; settings: 10 days
In short: as §1

[17] = system: horseweed (Erigeron canadensis); experiment: as above; settings: 10 days
In short: as §1

[18] = system: kochia (Bassia scoparia); experiment: as above; settings: 10 days
In short: as §1

[19] = system: oat, wild (wild oat, Avena fatua); experiment: as above; settings: 10 days
In short: as §1

[20] = system: palmer (palmer amaranth, palmer pigweed, Amaranthus palmeri); experiment: as above; settings: 10 days
In short: as §1

[21] = system: ragweed (common ragweed, Ambrosia artemisiifolia); experiment: as above; settings: 10 days
In short: as §1

[22] = system: ryegrass, Italian (italian ryegrass, Lolium multiflorum); experiment: as above; settings: 10 days
In short: as §1

[23] = system: soybean (Glycine max); experiment: as above; settings: 10 days
In short: as §1

[24] = system: wheat (Triticum aestivum); experiment: as above; settings: 10 days
In short: as §1

[25] = system: barnyardgrass (Echinochloa crusgalli); experiment: Test B flooded paddy test, visual plant response rating 0-100; settings: 250 g ai/ha, Flood, applied to paddy water, evaluated after 13 days
In short: (§2)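 In this flooded assay, 2-leaf seedlings received compound through the water layer, kept at 3 cm over the soil. Plants were held 13 days in a greenhouse and then visually compared with control pots.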

[26] = system: ducksalad (Heteranthera limosa); experiment: as above; settings: 250 g ai/ha, Flood, applied to paddy water, evaluated after 13 days
In short: as §2

[27] = system: rice (Oryza sativa); experiment: as above; settings: 250 g ai/ha, Flood, applied to paddy water, evaluated after 13 days
In short: as §2

[28] = system: sedge, umbrella (small-flower umbrella sedge, Cyperus difformis); experiment: as above; settings: 250 g ai/ha, Flood, applied to paddy water, evaluated after 13 days
In short: as §2

[29] = 31 g ai/ha, postemergence, 0 = no effect, 100 = complete control
[30] = Postemergence, 125 g ai/ha, 0 is no effect, 100 is complete control

Question: Which “Barnyardgrass plant response rating (0-100)” value ([1]; 31 g ai/ha) does the source give for CCOC(=O)C1CCC(NC(=O)C2(C)CN(c3cc(F)cc(Cl)c3)C(=O)O2)C1 (stereo not shown) [Compound 19] here?
Answer: The value was 30.

Question: What about the “Barnyardgrass plant response rating (0 to 100 scale)” value ([1]; 125 g ai/ha) of the same molecule?
Answer: The value was 80.

Question: What about the “Blackgrass plant response rating (0-100)” value ([2]; 31 g ai/ha) of the same molecule?
Answer: Its value is 0.

Question: What about the “Blackgrass plant response rating (0 to 100 scale)” value ([2]; 125 g ai/ha) of the same molecule?
Answer: Its value is 50.

Question: And the “Corn plant response rating (0-100)” value ([3]; 31 g ai/ha)?
Answer: Its value is 10.

Question: What about the “Corn plant response rating (0 to 100 scale)” value ([3]; 125 g ai/ha) of the same molecule?
Answer: The value was 50.

Question: What about the “Foxtail, Green plant response rating (0-100)” value ([4]; 31 g ai/ha) of the same molecule?
Answer: Its value is 50.

Question: What about the “Foxtail, Green plant response rating (0 to 100 scale)” value ([4]; 125 g ai/ha) of the same molecule?
Answer: Its value is 90.

Question: And the “Kochia plant response rating (0-100)” value ([5]; 31 g ai/ha)?
Answer: The value was 0.

Question: And the “Kochia plant response rating (0 to 100 scale)” value ([5]; 125 g ai/ha)?
Answer: The value was 90.

Question: And the “Oat, Wild plant response rating (0-100)” value ([6]; 31 g ai/ha)?
Answer: The value was 0.

Question: And the “Oat, Wild plant response rating (0 to 100 scale)” value ([6]; 125 g ai/ha)?
Answer: The value was 60.

Question: And the “Amaranth, Palmer plant response rating (0-100)” value ([7]; 31 g ai/ha)?
Answer: The value was 30.

Question: And the “Amaranth, Palmer plant response rating (0 to 100 scale)” value ([7]; 125 g ai/ha)?
Answer: The value was 90.

Question: What about the “Ragweed plant response rating (0-100)” value ([8]; 31 g ai/ha) of the same molecule?
Answer: The value was 0.

Question: What about the “Ragweed plant response rating (0 to 100 scale)” value ([8]; 125 g ai/ha) of the same molecule?
Answer: Its value is 0.

Question: And the “Ryegrass, Italian plant response rating (0-100)” value ([9]; 31 g ai/ha)?
Answer: Its value is 80.

Question: What about the “Ryegrass, Italian plant response rating (0 to 100 scale)” value ([9]; 125 g ai/ha) of the same molecule?
Answer: The value was 80.

Question: What about the “Soybean plant response rating (0-100)” value ([10]; 31 g ai/ha) of the same molecule?
Answer: The value was 0.

Question: What about the “Soybean plant response rating (0 to 100 scale)” value ([10]; 125 g ai/ha) of the same molecule?
Answer: Its value is 20.

Question: And the “Wheat plant response rating (0-100)” value ([11]; 31 g ai/ha)?
Answer: Its value is 70.

Question: And the “Wheat plant response rating (0 to 100 scale)” value ([11]; 125 g ai/ha)?
Answer: The value was 90.

Question: What about the “Barnyardgrass plant response rating (0-100)” value [12, 29] of the same molecule?
Answer: Its value is 60.

Question: What about the “Barnyardgrass plant response rating (0 to 100 scale)” value [12, 30] of the same molecule?
Answer: The value was 100.

Question: What about the “Blackgrass plant response rating (0-100)” value [13, 29] of the same molecule?
Answer: Its value is 70.

Question: What about the “Blackgrass plant response rating (0 to 100 scale)” value [13, 30] of the same molecule?
Answer: Its value is 90.

Question: And the “Corn plant response rating (0-100)” value [14, 29]?
Answer: Its value is 50.

Question: What about the “Corn plant response rating (0 to 100 scale)” value [14, 30] of the same molecule?
Answer: Its value is 100.

Question: What about the “Galium plant response rating (0-100)” value [15, 29] of the same molecule?
Answer: Its value is 80.

Question: What about the “Galium plant response rating (0 to 100 scale)” value [15, 30] of the same molecule?
Answer: Its value is 80.

Question: And the “Foxtail, Green plant response rating (0-100)” value [16, 29]?
Answer: Its value is 40.

Question: What about the “Foxtail, Green plant response rating (0 to 100 scale)” value [16, 30] of the same molecule?
Answer: Its value is 90.

Question: And the “Horseweed plant response rating (0-100)” value [17, 29]?
Answer: The value was 0.

Question: And the “Horseweed plant response rating (0 to 100 scale)” value [17, 30]?
Answer: The value was 0.

Question: What about the “Kochia plant response rating (0-100)” value [18, 29] of the same molecule?
Answer: Its value is 10.

Question: And the “Kochia plant response rating (0 to 100 scale)” value [18, 30]?
Answer: The value was 70.

Question: What about the “Oat, Wild plant response rating (0-100)” value [19, 29] of the same molecule?
Answer: Its value is 90.

Question: What about the “Oat, Wild plant response rating (0 to 100 scale)” value [19, 30] of the same molecule?
Answer: The value was 90.

Question: And the “Amaranth, Palmer plant response rating (0-100)” value [20, 29]?
Answer: The value was 30.

Question: And the “Amaranth, Palmer / Pigweed, Palmer plant response rating (0 to 100 scale)” value [20, 30]?
Answer: Its value is 90.

Question: What about the “Ragweed plant response rating (0-100)” value [21, 29] of the same molecule?
Answer: The value was 0.

Question: What about the “Ragweed plant response rating (0 to 100 scale)” value [21, 30] of the same molecule?
Answer: The value was 40.

Question: And the “Ryegrass, Italian plant response rating (0-100)” value [22, 29]?
Answer: Its value is 90.

Question: And the “Ryegrass, Italian plant response rating (0 to 100 scale)” value [22, 30]?
Answer: Its value is 90.

Question: And the “Soybean plant response rating (0-100)” value [23, 29]?
Answer: Its value is 50.

Question: And the “Soybean plant response rating (0 to 100 scale)” value [23, 30]?
Answer: Its value is 60.

Question: And the “Wheat plant response rating (0-100)” value [24, 29]?
Answer: The value was 80.

Question: And the “Wheat plant response rating (0 to 100 scale)” value [24, 30]?
Answer: Its value is 90.

Question: What about the “Plant response rating, Barnyardgrass (0 to 100 scale, 0 is no effect and 100 is complete control)” value [25] of the same molecule?
Answer: The value was 65.

Question: And the “Plant response rating, Ducksalad (0 to 100 scale, 0 is no effect and 100 is complete control)” value [26]?
Answer: The value was 70.

Question: What about the “Plant response rating, Rice (0 to 100 scale, 0 is no effect and 100 is complete control)” value [27] of the same molecule?
Answer: The value was 0.

Question: And the “Plant response rating, Sedge, Umbrella (0 to 100 scale, 0 is no effect and 100 is complete control)” value [28]?
Answer: Its value is 60.
